# Laboratory results as given in patent US20230148214A1, “INDAZOLES AND AZAINDAZOLES AS LRRK2 INHIBITORS” (ESCAPE Bio, Inc., priority 2020, published 2023).
# Tests used:
# LRRK2 WT = target: T1, LRRK2 WT (Homo sapiens, UniProt Q5S007); experiment: LRRK2 Kinase Activity Assay (LanthaScreen TR-FRET), wild type; type: biochemical; settings: recombinant wild type LRRK2, 25 μM ATP, 400 nM LRRKtide, 60 min; class symbols
# T1 construct: purchased Life Technologies PR8604B
# How it was run: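 Recombinant wild-type or G2019S LRRK2 incubated with fluorescein-labeled LRRKtide (ERM-based) peptide, ATP and serially diluted compound for 60 min at room temperature.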
# LRRK2 G2019S = target: T2, LRRK2 G2019S (Homo sapiens, UniProt Q5S007, G2019S); experiment: LRRK2 Kinase Activity Assay (LanthaScreen TR-FRET), G2019S; type: biochemical; settings: recombinant G2019S-LRRK2, 25 μM ATP, 400 nM LRRKtide, 60 min; class symbols
# T2 construct: purchased Life Technologies PV4881
# T2 sequence (Q5S007 whole entry G2019S): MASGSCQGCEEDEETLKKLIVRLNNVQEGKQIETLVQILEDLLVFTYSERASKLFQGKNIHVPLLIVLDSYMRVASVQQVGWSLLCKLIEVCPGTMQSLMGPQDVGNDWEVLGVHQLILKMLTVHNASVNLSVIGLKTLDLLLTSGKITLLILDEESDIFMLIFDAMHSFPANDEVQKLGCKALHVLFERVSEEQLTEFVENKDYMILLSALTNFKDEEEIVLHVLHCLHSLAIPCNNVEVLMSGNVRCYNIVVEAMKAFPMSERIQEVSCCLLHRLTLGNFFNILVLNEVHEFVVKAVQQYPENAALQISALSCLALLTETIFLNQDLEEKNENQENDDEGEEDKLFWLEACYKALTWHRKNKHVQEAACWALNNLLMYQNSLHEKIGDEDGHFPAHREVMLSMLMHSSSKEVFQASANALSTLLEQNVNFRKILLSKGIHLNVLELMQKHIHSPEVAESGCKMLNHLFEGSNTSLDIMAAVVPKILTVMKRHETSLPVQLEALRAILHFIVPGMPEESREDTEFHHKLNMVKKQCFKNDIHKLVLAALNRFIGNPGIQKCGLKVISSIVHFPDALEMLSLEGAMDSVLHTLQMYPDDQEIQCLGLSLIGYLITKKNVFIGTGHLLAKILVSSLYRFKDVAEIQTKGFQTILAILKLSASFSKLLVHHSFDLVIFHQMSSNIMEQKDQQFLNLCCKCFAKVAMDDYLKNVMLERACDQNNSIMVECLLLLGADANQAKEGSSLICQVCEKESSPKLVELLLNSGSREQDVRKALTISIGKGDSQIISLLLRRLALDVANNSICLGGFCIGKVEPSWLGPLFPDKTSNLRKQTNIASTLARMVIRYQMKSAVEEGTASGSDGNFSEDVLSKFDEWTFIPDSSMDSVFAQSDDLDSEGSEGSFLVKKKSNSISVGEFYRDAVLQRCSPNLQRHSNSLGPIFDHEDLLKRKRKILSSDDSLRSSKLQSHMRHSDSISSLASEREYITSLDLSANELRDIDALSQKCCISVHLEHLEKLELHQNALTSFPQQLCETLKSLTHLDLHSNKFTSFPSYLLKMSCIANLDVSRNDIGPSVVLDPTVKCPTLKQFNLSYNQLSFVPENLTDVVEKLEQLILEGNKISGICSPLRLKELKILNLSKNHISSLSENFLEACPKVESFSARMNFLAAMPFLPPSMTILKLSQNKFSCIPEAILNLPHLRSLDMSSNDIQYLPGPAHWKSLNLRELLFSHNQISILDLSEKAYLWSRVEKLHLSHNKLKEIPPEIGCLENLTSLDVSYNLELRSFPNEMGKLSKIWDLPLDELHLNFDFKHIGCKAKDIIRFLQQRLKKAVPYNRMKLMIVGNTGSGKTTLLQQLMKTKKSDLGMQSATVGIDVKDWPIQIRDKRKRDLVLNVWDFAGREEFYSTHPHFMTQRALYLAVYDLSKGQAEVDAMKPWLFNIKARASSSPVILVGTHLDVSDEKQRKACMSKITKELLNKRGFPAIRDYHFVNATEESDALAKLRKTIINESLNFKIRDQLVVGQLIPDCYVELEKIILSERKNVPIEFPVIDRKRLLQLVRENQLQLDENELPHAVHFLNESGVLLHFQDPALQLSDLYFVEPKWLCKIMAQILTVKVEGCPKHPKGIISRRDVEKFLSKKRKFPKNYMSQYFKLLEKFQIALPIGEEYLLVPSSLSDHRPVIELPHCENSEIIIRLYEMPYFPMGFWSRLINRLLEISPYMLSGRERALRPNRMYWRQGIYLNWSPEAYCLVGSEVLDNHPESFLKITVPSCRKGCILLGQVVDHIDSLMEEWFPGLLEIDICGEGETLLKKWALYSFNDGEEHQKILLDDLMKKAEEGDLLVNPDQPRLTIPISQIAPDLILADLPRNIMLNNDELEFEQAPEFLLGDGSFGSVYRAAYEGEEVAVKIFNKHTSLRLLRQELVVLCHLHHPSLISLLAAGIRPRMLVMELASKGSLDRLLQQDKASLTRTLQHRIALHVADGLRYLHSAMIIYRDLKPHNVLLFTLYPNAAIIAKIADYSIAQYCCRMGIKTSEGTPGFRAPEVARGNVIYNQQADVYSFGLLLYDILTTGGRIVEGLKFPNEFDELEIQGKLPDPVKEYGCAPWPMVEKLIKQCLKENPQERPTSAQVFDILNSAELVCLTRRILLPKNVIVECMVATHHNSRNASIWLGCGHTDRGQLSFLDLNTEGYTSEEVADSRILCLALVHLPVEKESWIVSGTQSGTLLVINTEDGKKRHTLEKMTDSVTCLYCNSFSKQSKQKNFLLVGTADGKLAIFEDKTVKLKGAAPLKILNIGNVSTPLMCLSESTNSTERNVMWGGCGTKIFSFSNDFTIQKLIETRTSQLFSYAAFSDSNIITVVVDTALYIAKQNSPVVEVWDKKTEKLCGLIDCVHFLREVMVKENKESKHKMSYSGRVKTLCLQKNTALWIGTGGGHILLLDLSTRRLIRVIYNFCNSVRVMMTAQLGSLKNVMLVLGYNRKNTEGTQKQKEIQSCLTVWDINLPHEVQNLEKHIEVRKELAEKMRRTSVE
# Protocol: LRRK2 kinase activity was measured using a LanthaScreen™ Kinase Activity Assay from ThermoFisher Scientific. Recombinant wild type or G2019S-LRRK2 protein (Life Technologies, PR8604B or PV4881, respectively), was incubated with a fluorescein-labeled peptide substrate called LRRKtide that is based upon ezrin/radixin/moesin (ERM) (Life Technologies, PV4901) in the presence of ATP and serially diluted compound. […] Compound-dependent inhibition of the TR-FRET signal was used to generate a concentration-response curve for IC50 determination.
# After 60 min incubation at room temperature, the reaction was stopped by addition of 10 μL of 2×stop solution containing a final concentration of 2 nM anti-pERM antibody and 10 mM EDTA.
# T1 sequence (Q5S007 whole entry): as the sequence (Q5S007 whole entry G2019S) above, with S2019G counted along it
Compound,IC50 (LRRK2 WT) [nM],IC50 (LRRK2 G2019S) [nM]
"C[C@H]1CCc2cc(C#N)ccc2[C@H]1Oc1ccc2[nH]nc(-c3cnco3)c2c1 (single isomer, unassigned) [175, enantiomer 2, cis-6-Methyl-5-[[3-(1,3-oxazol-5-yl)-1H-indazol-5-yl]oxy]-5,6,7,8-tetrahydronaphthalene-2-carbonitrile]",100 to 1000,< 100
"C[C@@H]1CCc2cc(C#N)ccc2[C@H]1Oc1ccc2[nH]nc(-c3cnco3)c2c1 (single isomer, unassigned) [176, enantiomer 1, trans-6-Methyl-5-[[3-(1,3-oxazol-5-yl)-1H-indazol-5-yl]oxy]-5,6,7,8-tetrahydronaphthalene-2-carbonitrile]",100 to 1000,< 100
"C[C@@H]1CCc2cc(C#N)ccc2[C@H]1Oc1ccc2[nH]nc(-c3cnco3)c2c1 (single isomer, unassigned) [176, enantiomer 2, trans-6-Methyl-5-[[3-(1,3-oxazol-5-yl)-1H-indazol-5-yl]oxy]-5,6,7,8-tetrahydronaphthalene-2-carbonitrile]",< 100,< 100
"N#Cc1cc2c(nc1Cl)[C@@H](Oc1ccc3[nH]nc(-c4cnco4)c3c1)CCC2 (single isomer, unassigned) [177, enantiomer 1, 2-Chloro-8-((3-(oxazol-5-yl)-1H-indazol-5-yl)oxy)-5,6,7,8-tetrahydroquinoline-3-carbonitrile]",< 100,< 100
"N#Cc1cc2c(nc1Cl)[C@@H](Oc1ccc3[nH]nc(-c4cnoc4)c3c1)CCC2 (single isomer, unassigned) [178, enantiomer 1, 2-Chloro-8-[[3-(1,2-oxazol-4-yl)-1H-indazol-5-yl]oxy]-5,6,7,8-tetrahydroquinoline-3-carbonitrile]",< 100,< 100
"COc1nc2c(cc1C#N)CCC[C@@H]2Oc1ccc2[nH]nc(-c3cnco3)c2c1 (single isomer, unassigned) [179, enantiomer 1, 2-Methoxy-8-[[3-(1,3-oxazol-5-yl)-1H-indazol-5-yl]oxy]-5,6,7,8-tetrahydroquinoline-3-carbonitrile]",< 100,< 100
"COc1nc2c(cc1C#N)CCC[C@@H]2Oc1ccc2[nH]nc(-c3cnco3)c2c1 (single isomer, unassigned) [179, enantiomer 2, 2-Methoxy-8-[[3-(1,3-oxazol-5-yl)-1H-indazol-5-yl]oxy]-5,6,7,8-tetrahydroquinoline-3-carbonitrile]",100 to 1000,100 to 1000
"N#Cc1cc2c(cc1F)[C@@H](Oc1ccc3[nH]nc(-c4cnco4)c3c1)CCC2 (single isomer, unassigned) [180, enantiomer 1, 3-Fluoro-5-[[3-(1,3-oxazol-5-yl)-1H-indazol-5-yl]oxy]-5,6,7,8-tetrahydronaphthalene-2-carbonitrile]",< 100,< 100
"N#Cc1cc2c(nc1Cl)[C@@H](Oc1ccc3[nH]nc(C4CC4)c3c1)CCC2 (single isomer, unassigned) [181, enantiomer 1, 2-Chloro-8-[(3-cyclopropyl-1H-indazol-5-yl)oxy]-5,6,7,8-tetrahydroquinoline-3-carbonitrile]",< 100,< 100
"N#Cc1cc2c(nc1Cl)[C@@H](Oc1ccc3[nH]nc(C4CC4)c3c1)CCC2 (single isomer, unassigned) [181, enantiomer 2, 2-Chloro-8-[(3-cyclopropyl-1H-indazol-5-yl)oxy]-5,6,7,8-tetrahydroquinoline-3-carbonitrile]",100 to 1000,< 100
"N#Cc1cnc2c(n1)CC[C@@H]2Oc1ccc2[nH]nc(-c3cnco3)c2c1 (single isomer, unassigned) [182, enantiomer 1, 5-((3-(Oxazol-5-yl)-1H-indazol-5-yl)oxy)-6,7-dihydro-5H-cyclopenta[b]pyrazine-2-carbonitrile]",< 100,< 100
